Values quoted from earlier work as cited in patent publication US20090215137A1, “METHODS FOR THE ECONOMICAL PRODUCTION OF BIOFUEL PRECURSOR THAT IS ALSO A BIOFUEL FROM BIOMASS” (GEVO, INC., priority 2007, published 2009).
Converted amounts (≈) assume the structure as drawn. Read-outs that look alike come from different tables or passages of the source. Blank lines part the entries; values can stand above or below the compound they belong to.

Key:
[1] = octanol:water
Klyveromyces marxianus = conditions: in binary combination

- Solubility in water (20° C., unless noted): 0.3 g/L (≈ 2300 µM)
- solubility limit (two-phase system (Chen, Q. 1995)): < 1.1 g/L
- log P [1]: 3
SMILES: CCCCCCCCO [Biocatalyst 1-octanol, 1-octanol]

SMILES: COc1cc(C=O)ccc1O [Vanillin, vanillin]
- reduction in both cell growth and fermentation (Klyveromyces marxianus): 90%

SMILES: CCC(C)O (stereo not drawn) [Biocatalyst 2-butanol, 2-butanol]
- log P [1]: 0.6

- Solubility in water (20° C., unless noted) (in words): miscible
SMILES: CC(C)O [Biocatalyst 2-propanol, 2-propanol]
